This note sets out measurements from ChEMBL document CHEMBL1156466, “NHE1 inhibition by amiloride- and benzoylguanidine-type compounds. Inhibitor binding loci deduced from chimeras of NHE1 homologues with endogenous differences in inhibitor sensitivity” (J Biol Chem, 2007).

Experiment [1] concerns AP1. Nature of the experiment: Inhibition of Pleuronectes americanus NHE1 C-terminal mutant containing TM7 domain of Amphiuma tridactylum expressed in chinese hamster AP1 cells assessed as intracellular pHi recovery by ammonium chloride prepulse protocol. The experiment is classed as cell-based.
Experiment [2] can be described thus: (§1) Inhibition of Pleuronectes americanus NHE1 mutant containing TM10-12 domain of Amphiuma tridactylum expressed in chinese hamster AP1 cells assessed as intracellular pHi recovery by ammonium chloride prepulse protocol. The experiment is classed as cell-based.
A short description of experiment [3]: (§2) Inhibition of Amphiuma tridactylum NHE1 mutant containing TM10-12 domain of Pleuronectes americanus expressed in chinese hamster AP1 cells assessed as intracellular pHi recovery by ammonium chloride prepulse protocol. It is filed as cell-based.
Experiment [4] has as its target Sodium/hydrogen exchanger (Amphiuma tridactylum, UniProt Q9W6Q1). In words: (§3) Inhibition of Amphiuma tridactylum wild type NHE1 expressed in chinese hamster AP1 cells assessed as intracellular pHi recovery by ammonium chloride prepulse protocol. It is filed as cell-based.
The subject of experiment [5] is AP1. Nature of the experiment: Inhibition of Pleuronectes americanus NHE1 C-terminal mutant with replacement of residues C-terminal to 489 position with corresponding residues of Amphiuma tridactylum expressed in chinese hamster AP1 cells assessed as intracellular pHi recovery by ammonium chloride prepulse protocol. The experiment is classed as cell-based.
Experiment [6] has as its target T1, Sodium/hydrogen exchanger (Pseudopleuronectes americanus) (UniProt Q804I7).
T1 sequence (whole entry): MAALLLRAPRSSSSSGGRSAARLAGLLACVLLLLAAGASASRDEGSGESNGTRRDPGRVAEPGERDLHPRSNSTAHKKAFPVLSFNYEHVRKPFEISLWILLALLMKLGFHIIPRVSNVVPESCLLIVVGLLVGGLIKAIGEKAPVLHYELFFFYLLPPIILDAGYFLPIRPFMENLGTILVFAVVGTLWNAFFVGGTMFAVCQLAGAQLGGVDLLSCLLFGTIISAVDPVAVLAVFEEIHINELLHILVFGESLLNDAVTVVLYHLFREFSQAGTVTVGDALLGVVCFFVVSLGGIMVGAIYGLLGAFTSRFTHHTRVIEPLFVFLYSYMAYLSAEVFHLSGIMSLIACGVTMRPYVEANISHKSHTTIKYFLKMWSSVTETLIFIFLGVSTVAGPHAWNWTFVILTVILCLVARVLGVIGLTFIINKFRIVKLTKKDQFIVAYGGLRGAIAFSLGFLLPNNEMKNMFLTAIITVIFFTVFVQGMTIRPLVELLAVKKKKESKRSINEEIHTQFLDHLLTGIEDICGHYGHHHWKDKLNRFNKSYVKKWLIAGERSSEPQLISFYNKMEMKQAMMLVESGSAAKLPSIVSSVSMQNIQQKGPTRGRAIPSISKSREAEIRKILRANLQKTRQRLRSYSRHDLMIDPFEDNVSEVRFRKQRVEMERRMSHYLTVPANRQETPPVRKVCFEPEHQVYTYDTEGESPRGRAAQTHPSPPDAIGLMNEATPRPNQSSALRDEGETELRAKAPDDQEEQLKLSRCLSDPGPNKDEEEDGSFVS
Nature of the experiment: Inhibition of osmotic cell shrinkage-induced NHE1 activity in Pleuronectes americanus RBC at 1 mM.

A short description of experiment [7]: (§4) Inhibition of Pleuronectes americanus NHE1 C-terminal mutant containing TM10 domain of Amphiuma tridactylum expressed in chinese hamster AP1 cells assessed as intracellular pHi recovery by ammonium chloride prepulse protocol. The experiment is classed as cell-based.
For experiment [8], the system named is AP1. Nature of the experiment: Inhibition of Pleuronectes americanus NHE1 TM4 mutant containing TFFLF sequence of Amphiuma tridactylum expressed in chinese hamster AP1 cells assessed as intracellular pHi recovery by ammonium chloride prepulse protocol. It is filed as cell-based.
Experiment [9] can be described thus: (§5) Inhibition of Pleuronectes americanus NHE1 TM4 mutant containing VFFLF sequence of human expressed in chinese hamster AP1 cells assessed as intracellular pHi recovery by ammonium chloride prepulse protocol. The experiment is classed as cell-based.
For experiment [10], the target named is Sodium/hydrogen exchanger 1 (Homo sapiens, UniProt P19634). In words: Inhibition of human wild type NHE1 expressed in chinese hamster AP1 cells assessed as intracellular pHi recovery by ammonium chloride prepulse protocol. It is filed as cell-based.
Chain of Sodium/hydrogen exchanger 1 (P19634 whole entry): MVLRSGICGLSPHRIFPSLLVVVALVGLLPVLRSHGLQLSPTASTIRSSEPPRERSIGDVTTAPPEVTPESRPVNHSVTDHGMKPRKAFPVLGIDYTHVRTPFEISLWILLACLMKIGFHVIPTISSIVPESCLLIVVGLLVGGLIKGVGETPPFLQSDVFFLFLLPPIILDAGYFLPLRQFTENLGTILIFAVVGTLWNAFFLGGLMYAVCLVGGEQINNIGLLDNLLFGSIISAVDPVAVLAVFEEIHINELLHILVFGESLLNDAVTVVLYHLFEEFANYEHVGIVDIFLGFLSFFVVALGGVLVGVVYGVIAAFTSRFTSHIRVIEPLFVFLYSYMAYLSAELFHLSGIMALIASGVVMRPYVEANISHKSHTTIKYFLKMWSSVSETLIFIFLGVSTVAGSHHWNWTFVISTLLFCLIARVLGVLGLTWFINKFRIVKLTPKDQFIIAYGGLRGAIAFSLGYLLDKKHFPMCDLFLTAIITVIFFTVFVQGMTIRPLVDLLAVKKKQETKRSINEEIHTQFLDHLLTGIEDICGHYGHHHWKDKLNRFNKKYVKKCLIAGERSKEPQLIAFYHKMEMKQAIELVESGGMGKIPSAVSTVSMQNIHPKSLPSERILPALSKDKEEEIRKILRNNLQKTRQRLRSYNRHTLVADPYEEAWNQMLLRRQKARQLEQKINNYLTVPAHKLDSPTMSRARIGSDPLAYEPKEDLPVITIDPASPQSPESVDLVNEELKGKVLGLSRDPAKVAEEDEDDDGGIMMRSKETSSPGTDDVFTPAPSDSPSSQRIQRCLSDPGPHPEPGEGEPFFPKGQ
The target in experiment [11] is Sodium/hydrogen exchanger (Amphiuma tridactylum) (UniProt Q9W6Q1). In words: Inhibition of osmotic cell shrinkage-induced NHE1 activity in Amphiuma tridactylum RBC.
Chain of Sodium/hydrogen exchanger (Amphiuma tridactylum) (Q9W6Q1 as listed by the source): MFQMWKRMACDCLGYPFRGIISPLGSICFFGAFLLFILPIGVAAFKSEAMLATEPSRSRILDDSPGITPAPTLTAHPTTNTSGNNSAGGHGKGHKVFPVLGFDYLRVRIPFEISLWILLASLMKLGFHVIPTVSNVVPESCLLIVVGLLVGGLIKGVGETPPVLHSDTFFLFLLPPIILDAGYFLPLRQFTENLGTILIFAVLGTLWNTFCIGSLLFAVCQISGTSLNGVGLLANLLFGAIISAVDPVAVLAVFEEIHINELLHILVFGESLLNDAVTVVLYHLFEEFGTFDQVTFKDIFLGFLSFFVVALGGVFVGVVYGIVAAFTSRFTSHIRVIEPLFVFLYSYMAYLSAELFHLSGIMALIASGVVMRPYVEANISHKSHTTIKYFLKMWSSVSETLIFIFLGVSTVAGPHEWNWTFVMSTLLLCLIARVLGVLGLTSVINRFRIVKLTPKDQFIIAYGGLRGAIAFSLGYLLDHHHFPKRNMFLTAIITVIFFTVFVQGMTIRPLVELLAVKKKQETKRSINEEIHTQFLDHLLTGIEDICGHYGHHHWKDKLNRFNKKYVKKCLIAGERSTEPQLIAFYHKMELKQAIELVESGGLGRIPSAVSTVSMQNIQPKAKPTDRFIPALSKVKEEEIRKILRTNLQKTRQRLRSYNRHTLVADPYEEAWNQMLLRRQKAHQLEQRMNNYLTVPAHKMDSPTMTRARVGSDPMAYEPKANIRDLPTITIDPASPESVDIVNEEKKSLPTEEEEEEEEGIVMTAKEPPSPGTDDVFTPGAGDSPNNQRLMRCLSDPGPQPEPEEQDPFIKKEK
In experiment [12] the target is T1, Sodium/hydrogen exchanger (Pseudopleuronectes americanus). Nature of the experiment: Inhibition of osmotic cell shrinkage-induced NHE1 activity in Pleuronectes americanus RBC upto 100 uM.
Experiment [13] deals with AP1. The experiment is described as §1. It is filed as cell-based.
For experiment [14], the system named is AP1. Described as §2. The experiment is classed as cell-based.
For experiment [15], the target named is Sodium/hydrogen exchanger (Amphiuma tridactylum) (UniProt Q9W6Q1). Described as §3. It is filed as cell-based.
The subject of experiment [16] is AP1. Described as §4. The experiment is classed as cell-based.
Experiment [17] deals with AP1. The description is as §5. The experiment is classed as cell-based.
Experiment [18] deals with T1, Sodium/hydrogen exchanger (Pseudopleuronectes americanus). In words: Inhibition of Pleuronectes americanus wild type NHE1 expressed in chinese hamster AP1 cells assessed as intracellular pHi recovery by ammonium chloride prepulse protocol. The experiment is classed as cell-based.
Experiment [19] addresses Sodium/hydrogen exchanger (Amphiuma tridactylum) (UniProt Q9W6Q1). Nature of the experiment: Inhibition of osmotic cell shrinkage-induced NHE1 activity in Amphiuma tridactylum RBC at 100 uM.
The target in experiment [20] is T1, Sodium/hydrogen exchanger (Pseudopleuronectes americanus). Nature of the experiment: Inhibition of osmotic cell shrinkage-induced NHE1 activity in Pleuronectes americanus RBC at 20 uM.

Active and inactive are the calls of the source. No cut-off for these calls is given here.

Chain of Sodium/hydrogen exchanger (Q9W6Q1 whole entry): as the sequence (Q9W6Q1 as listed by the source) above

Broadly, the IC50 is the concentration at which inhibition is half-maximal. As for `N=C(N)NC(=O)c1nc(Cl)c(N)nc1N` [AMILORIDE], the result in the experiment with AP1 [1] and in the experiment with AP1 [8] was Active. In addition, the IC50 in [2] stood at 137 µM; in experiment [3], 38 µM; in experiment [4], 98 µM; in [7], 491 µM; in experiment [9] it was 118 µM. Moreover, the outcome (with AP1 [5]; in experiment [6]) was inactive.

On to `CCN(c1nc(N)c(C(=O)NC(=N)N)nc1Cl)C(C)C` [5-(N-ETHYL-N-ISOPROPYL)AMILORIDE], for which the half-inhibitory concentration (IC50) was determined as 0.8 µM in experiment [10]; 11 µM in experiment [2]; 5.8 µM in [3]; 8.7 µM in [4]; 37 µM in experiment [7]; 0.92 µM in experiment [9]. The outcome in experiment [11] was Active. Further, the outcome in [12] was inactive.

Consider `CC(C)c1ccc(C(=O)N=C(N)N)cc1S(C)(=O)=O`, for which the outcome (in experiment [10]; in the experiment with AP1 [14]; with AP1 [8]; in the experiment on AP1 [17]) was Active. The outcome (in the experiment on AP1 [13]; in experiment [15]; in the experiment on AP1 [16]; in [18]) was inactive.

Regarding `CS(=O)(=O)c1cc(C(=O)N=C(N)N)ccc1N1CCCCC1`, the outcome (in experiment [10]; in the experiment on AP1 [14]; with AP1 [8]; in the experiment with AP1 [17]) was Active. Further, the result (in experiment [19]; in experiment [20]; in the experiment on AP1 [13]; in [15]; with AP1 [16]; in experiment [18]) was inactive.
